The target in one series is T1, Emi2 (Saccharomyces cerevisiae, UniProt Q04409).
T1 sequence (Q04409 2-500): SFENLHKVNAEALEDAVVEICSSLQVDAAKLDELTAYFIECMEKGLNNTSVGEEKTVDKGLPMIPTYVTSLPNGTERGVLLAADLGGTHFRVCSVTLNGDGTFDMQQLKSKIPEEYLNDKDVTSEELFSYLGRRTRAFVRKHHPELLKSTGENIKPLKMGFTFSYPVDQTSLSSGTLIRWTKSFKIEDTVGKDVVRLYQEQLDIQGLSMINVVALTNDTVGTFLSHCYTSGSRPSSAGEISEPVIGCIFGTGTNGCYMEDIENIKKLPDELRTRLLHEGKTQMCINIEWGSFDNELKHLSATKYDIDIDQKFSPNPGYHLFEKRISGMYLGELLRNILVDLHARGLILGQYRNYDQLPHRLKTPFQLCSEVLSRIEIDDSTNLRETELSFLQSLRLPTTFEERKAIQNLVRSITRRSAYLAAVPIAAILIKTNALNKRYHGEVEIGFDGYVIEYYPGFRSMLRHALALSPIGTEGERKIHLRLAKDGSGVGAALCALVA
Nature of the series: phosphorylation of glucose. The class given is biochemical. Particulars: sugar phosphorylation with ATP; details in supplement.

For the next series, the target named is T2, Glk1 (Saccharomyces cerevisiae, UniProt P17709).
T2 sequence (P17709 2-500): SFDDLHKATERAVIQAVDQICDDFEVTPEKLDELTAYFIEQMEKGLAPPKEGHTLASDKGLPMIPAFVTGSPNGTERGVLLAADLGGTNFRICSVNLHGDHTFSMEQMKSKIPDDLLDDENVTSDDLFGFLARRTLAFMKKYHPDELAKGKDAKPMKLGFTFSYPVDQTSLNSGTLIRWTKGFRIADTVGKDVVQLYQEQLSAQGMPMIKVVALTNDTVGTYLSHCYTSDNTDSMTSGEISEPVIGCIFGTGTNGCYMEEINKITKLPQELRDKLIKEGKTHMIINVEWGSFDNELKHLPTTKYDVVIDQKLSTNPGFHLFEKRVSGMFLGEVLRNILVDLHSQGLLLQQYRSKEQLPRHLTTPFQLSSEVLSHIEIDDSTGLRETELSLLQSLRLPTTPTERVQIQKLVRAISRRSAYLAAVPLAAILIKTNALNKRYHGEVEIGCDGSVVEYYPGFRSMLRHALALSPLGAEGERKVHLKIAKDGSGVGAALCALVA
In words: phosphorylation of glucose. The class given is biochemical. Particulars: sugar phosphorylation with ATP; details in supplement.

The target of another series is T3, Hxk2 (Saccharomyces cerevisiae, UniProt P04807).
T3 sequence (P04807 2-486): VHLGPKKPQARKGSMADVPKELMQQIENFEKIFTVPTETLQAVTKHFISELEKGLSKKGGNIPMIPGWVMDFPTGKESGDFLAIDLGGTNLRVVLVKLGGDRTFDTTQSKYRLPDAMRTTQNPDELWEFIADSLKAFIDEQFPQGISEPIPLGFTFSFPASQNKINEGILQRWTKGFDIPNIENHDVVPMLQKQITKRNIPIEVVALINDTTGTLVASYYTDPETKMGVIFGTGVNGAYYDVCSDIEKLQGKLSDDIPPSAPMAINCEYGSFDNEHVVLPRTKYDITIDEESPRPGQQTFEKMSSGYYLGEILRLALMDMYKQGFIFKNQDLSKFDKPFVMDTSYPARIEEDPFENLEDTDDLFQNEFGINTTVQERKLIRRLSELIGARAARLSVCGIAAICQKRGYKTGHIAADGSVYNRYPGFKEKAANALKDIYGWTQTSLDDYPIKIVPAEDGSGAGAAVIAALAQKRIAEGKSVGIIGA
Nature of the series: phosphorylation of glucose. Particulars: sugar phosphorylation with ATP; details in supplement. It counts as biochemical.

The target in a further series is T4, Hxk1 (Saccharomyces cerevisiae, UniProt P04806).
T4 sequence (P04806 1-485): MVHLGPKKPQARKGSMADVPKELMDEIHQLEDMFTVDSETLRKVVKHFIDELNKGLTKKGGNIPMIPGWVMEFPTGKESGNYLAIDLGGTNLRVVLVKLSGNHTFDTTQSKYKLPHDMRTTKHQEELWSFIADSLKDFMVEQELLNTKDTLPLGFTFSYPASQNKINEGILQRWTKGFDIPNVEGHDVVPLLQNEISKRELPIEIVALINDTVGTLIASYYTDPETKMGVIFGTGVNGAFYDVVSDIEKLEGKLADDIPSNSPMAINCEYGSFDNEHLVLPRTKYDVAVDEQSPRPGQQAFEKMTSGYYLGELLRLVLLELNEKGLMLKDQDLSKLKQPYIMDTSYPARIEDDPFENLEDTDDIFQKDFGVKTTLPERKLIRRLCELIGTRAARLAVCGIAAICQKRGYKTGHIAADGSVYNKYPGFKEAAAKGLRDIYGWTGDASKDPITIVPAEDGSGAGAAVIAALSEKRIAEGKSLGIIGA
Nature of the series: phosphorylation of glucose. It counts as biochemical. The conditions noted are these: sugar phosphorylation with ATP; details in supplement.

Substrate in series [1]: Nc1ncnc2c1ncn2[C@@H]1O[C@H](COP(=O)(O)OP(=O)(O)OP(=O)(O)O)[C@@H](O)[C@H]1O
Nature of the series: pyruvate kinase / lactate dehydrogenase coupled assay, ADP formation. Particulars: GlcNAc as sugar substrate (concentration not given). It counts as biochemical, Saccharomyces cerevisiae.

Turning to `OC[C@H]1OC(O)[C@H](O)[C@@H](O)[C@@H]1O` (stereo partly drawn) [glucose], the phosphorylation of glucose entry at Emi2, at Glk1, at Hxk2 and at Hxk1 was “all these hexokinases clearly exhibited the activity for Glc” throughout.

B1: Ngk1 (YLR446Wp) (Saccharomyces cerevisiae S288C) (protein)
chain: MTIESTLARELESLILPADSIVNVVDQFQEELLSRLQTNTISMLPQCLVPDKRSRWNPEDKILTIDFGGTRLKFAIISLPQIVIEYNDAFELTYNIVDSNFFNQIIYTICTRLAANGYIKKKNESSEASKFFVSVTFSFPLNPEGEVVAMGKGFVMTDTLQGSTVKQLIQSSFHRIISENIEEFFCTMNVCHVINDAIAVSLTSKFICENDSISLIIGTGTNACFEVPYGYLPPFKRDALRETLPSSYNKETLNFKHVLINSEIGFIGKNVIALQPFDIHGAISYEMPLECVTSGKWLPLSLKNILLQYNIIPKNFPVEFNGELVCQLAEDCTNAWFENEHYALICQIARLLIKRAAFYVAAIVQAIDIITGCKNYNFIHIGYVGSFLHNSNFYREQIKYYSSIHIKLQFLNHSNLLGAAIATYLNKSDNQVQ
notes: full-length ORF, 433 residues, about 50 kDa predicted, N-terminal His6-tag (pCold II), E. coli BL21 (DE3), HisTrap purified; tag removal not mentioned
Take B1: in series [1], the Km (as a rule, the concentration of substrate that gives half-maximal velocity) turned out to be 1200 µM; the kcat – broadly, the number of substrate molecules converted per active site and unit of time at saturation – amounted to 3.4 s⁻¹.
